“Also recorded” adds a separate entry of the source.

The target in one experiment is T1, α-synuclein (Rattus norvegicus, UniProt P37377).
T1 construct: from tissue; host or cells: substantia nigra of Sprague-Dawley rats
Put plainly: DOPAL-triggered α-synuclein aggregation in vivo, intranigral injection, Western blot. Particulars: rat SN injected with 1 μg or 0.2 μg DOPAL, 1 and 4 hours. From the text: Western blot of DOPAL-triggered AS aggregation in vivo Intranigral DOPAL injections and tissue preparation for Western blot. The housing and nutrition of the rats used in this study and all procedures performed on them conformed to standards set forth in the Guide for the Care and Use of Laboratory Animals of the National Research Council (National Academy Press, 1996). The experimental protocols reported herein were reviewed and approved by the Animal Care Committee of the Saint Louis University.
The details of the surgical and immunohistochemical methods have been previously described (Burke et al., Brain Res 989:205-213, 2003). Briefly, 2-month-old Sprague-Dawley rats (300 g; Harlan, Indianapolis, Ind., USA) were deeply anesthetized with 4% induction and maintained with 1% isoflurane. The heads of the rats were fixed in a stereotaxic apparatus (David Kopf, Tujunga, CA, USA). […]
Rats for Western blot analysis were killed after 4 h by injecting pentobarbital (100 mg/kg, IP). […] The black microspheres were identified in the pellets and supernatants were analyzed with Western blot as described above using AS 202 and J3-actin antibodies. For the 4-h 1.0-μg DOPAL and control SN injections, the density of the bands on the blot was determined using the UnScan it program (Silk Scientific, Orem, Utah, USA). The results were expressed as units of AS aggregate/unit of actin. […]

For experiment [1], the system named is dopaminergic neurons in the substantia nigra. Nature of the experiment: Tyrosine hydroxylase immunohistochemistry and densitometry after DOPAL injection into substantia nigra. It is filed as in vivo, rat. How it is done:
Immunohistochemistry. Eighteen hours (two rats) or 5 days following the surgery the rats were anesthetized and perfused through the left ventricle of the heart with 0.1 M phosphate buffer containing 4% paraformaldehyde. The brains were removed, post-fixed for at least 4 h, sunk in 25% sucrose, and sectioned frozen at 50 pm with a sliding microtome. Adjacent series of sections were subjected to a conventional immunoperoxidase protocol using antibodies against tyrosine hydroxylase (TH; Sigma, monoclonal, made in […], used at a dilution of 1:6000), neuronal nuclear antigen (NeuN, Chemicon, Temecula, Calif., USA, made in rabbit, used at 1:20,000) or glial fibrillary acidic protein (GFAP, made in rabbit, used at 1:5000). Briefly, the sections were immersed overnight in 0.1 M Sorenson's phosphate buffer (SPB, pH 7.4) containing 0.2% Triton X-100 (SPB/Triton) and primary antibody with agitation. The following morning they were thrice rinsed in SPB/Triton and immersed for 1 h in SPB/Triton containing biotinylated secondary antibodies against the host species of the primary antibodies, used at a dilution of 1:200. The sections were again thrice rinsed in SPB/Triton and then immersed in SPB/Triton containing ABC reagents (Vector, Burlingame, Calif., USA) used at a dilution of 1:200. After further rinsing in SPB the sections were reacted with 3,3-diaminobenzidine (DAB) and hydrogen peroxide to produce an insoluble brown reaction product that was further intensified with osmium and thiocarbohydrazide as has been described. All immersions and rinses were done at room temperature. In addition, a series of sections from many of the brains was mounted and processed for Nissl staining using a standard cresyl violet staining procedure. […]
Determination of DOPAL-induced Parkinson's disease-like behavior Injections of DOPAL or ALDH1A1 antisense oligo into rat SN. […] After 5-7 weeks, rats were injected with apomorphine (0.4 mg/kg, subcutaneously) and rotational asymmetry determined in each group just prior to sacrifice. […]

Regarding `O=CCc1ccc(O)c(O)c1` [DOPAL, 3,4-dihydroxyphenylacetaldehyde], the “aggregation of α-synuclein in vivo” value on α-synuclein was “triggers a selective dose and time dependent aggregation; also recorded: even small amounts of DOPAL still aggregate α-synuclein”. The “immunoreactivity of TH in the SN ipsilateral to injection” value in experiment [1] (vs contralateral non-injected side) is “decrease”. For the same molecule, the “reduction in TH immunoreactivity in the striatum ipsilateral to injection” value in experiment [1] (vs contralateral non-injected side, background subtracted) is 28%. Further, the “loss of TH immunoreactivity by spot density, ventrolateral striatum ipsilateral to injection” value in experiment [1] (vs contralateral side) was determined as 80%.

The values are drawn from US20120005765A1, “ANIMAL MODEL FOR PARKINSON'S DISEASE” (Saint Louis University, priority 2010, published 2012).
